Patent US6914045B2, “Glycopeptide antibiotics” (Wyeth Holdings Corporation, priority 2001, dated 2005)
Values after ≈ are worked out from the molar mass of the structure shown. Like-named read-outs stand apart in the source and are kept apart here. Numbered stars: 1 amine (or outer) side, 2 acyl side, 3 side chain; on linkers, the order of the positions; unused ones are H or OH. Square brackets hold non-standard residues; d marks the D form. Peptide text beside a SMILES is read from it. X5 = N=C1NCC(C(O)[C@@H](N[*:1])C(=O)[*:2])N1; X4 = N=C1NCC(C(O)[C@H](N[*:1])C(=O)[*:2])N1; Cha = N[C@@H](CC1CCCCC1)C(=O)O; dCha = N[C@H](CC1CCCCC1)C(=O)O

How the values were obtained:
Test in all cases: in vitro antibacterial evaluation, MIC by broth dilution
Type in all cases: cell-based
[1] = tested on: Staphylococcus sp.; details: broth dilution, 18 hours at 35° C.
Protocol: (§1) Methods for in vitro Antibacterial Evaluation (Table 1)
(§2) The minimum inhibitory concentration (MIC), the lowest concentration of the antibiotic which inhibits growth of the test organism, is determined by the broth dilution method using Muller-Hinton II […] (Baltimore Biological Laboratories) following the recommendations of the National Committee for Clinical Laboratory Standards [Methods for dilution antimicrobial susceptibility tests for bacteria that grow aerobically, approved standard M7-A2, National Committee for Clinical Laboratory Standards, Villanova, Pa.].
(§3) An inoculum level of 5×10^5 CFU/mL, and a range of antibiotic concentrations (64-0.06 μg/mL) is used. […] The test organisms include a spectrum of Gram-positive bacteria comprised of Staphylococcus sp., Streptococcus sp. and Enterococcus sp. These organisms include recent clinical isolates that are resistant to methicillin, penicillin and/or vancomycin.

[2] = tested on: Enterococcus sp.; details: broth dilution, 18 hours at 35° C.
Protocol: as §1, §2, §3

[3] = tested on: Streptococcus sp.; details: broth dilution, 18 hours at 35° C.
Protocol: as §1, §2, §3

[4] = tested on: Escherichia coli; details: 18 hours at 35° C.
In short: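 Broth dilution in Muller-Hinton II medium per NCCLS standard M7-A2, with an inoculum of 5×10^5 CFU/mL and antibiotic tested over 64-0.06 μg/mL. MIC was taken as the lowest concentration inhibiting visible growth.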

MIC ([1]; Staphylococcus, strain GC 4543, read-out: MIC Staphylococcus aureus-SMITH (GC 4543)): 4 µg/mL (≈ 5.06 µM) | MIC ([1]; Staphylococcus, strain GC 4547, read-out: MIC Coagulase Negative Staphylococcus (GC 4547)): 4 µg/mL (≈ 5.06 µM) | MIC ([1]; Staphylococcus, strain GC 4548, read-out: MIC Coagulase Negative Staphylococcus (GC 4548)): 4 µg/mL (≈ 5.06 µM) | MIC ([1]; Staphylococcus, strain GC 4549, read-out: MIC Coagulase Negative Staphylococcus (GC 4549)): 4 µg/mL (≈ 5.06 µM) | MIC ([1]; Staphylococcus, strain GC 4551, read-out: MIC Coagulase Negative Staphylococcus (GC 4551)): 8 µg/mL (≈ 10.1 µM) | MIC ([1]; strain ATCC 29213, read-out: MIC Staphylococcus aureus (ATCC 29213)): 16 µg/mL (≈ 20.2 µM) | MIC ([1]; strain GC 1131, read-out: MIC Staphylococcus aureus (GC 1131)): 8 µg/mL (≈ 10.1 µM) | MIC ([1]; strain GC 3051, read-out: MIC Staphylococcus aureus (GC 3051)): 16 µg/mL (≈ 20.2 µM) | MIC ([1]; strain GC 3053, read-out: MIC Staphylococcus aureus (GC 3053)): 32 µg/mL (≈ 40.5 µM) | MIC ([1]; strain GC 4541, read-out: MIC Staphylococcus aureus (GC 4541)): 16 µg/mL (≈ 20.2 µM) | MIC ([1]; strain GC 4542, read-out: MIC Staphylococcus aureus (GC 4542)): 16 µg/mL (≈ 20.2 µM) | MIC ([1]; strain GC 4544, read-out: MIC Staphylococcus aureus (GC 4544)): 16 µg/mL (≈ 20.2 µM) | MIC ([1]; strain GC 4545, read-out: MIC Staphylococcus aureus (GC 4545)): 8 µg/mL (≈ 10.1 µM) | MIC Enterococcus avium (GC 4558) ([2]; Enterococcus avium (GC 4558)): 32 µg/mL (≈ 40.5 µM) | MIC Enterococcus faecalis (ATCC 29212) ([2]; Enterococcus faecalis (ATCC 29212)): 64 µg/mL (≈ 80.9 µM) | MIC Enterococcus faecalis (GC 4552) ([2]; Enterococcus faecalis (GC 4552)): 64 µg/mL (≈ 80.9 µM) | MIC Enterococcus faecalis (GC 4553) ([2]; Enterococcus faecalis (GC 4553)): 32 µg/mL (≈ 40.5 µM) | MIC Enterococcus faecalis (GC 4554) ([2]; Enterococcus faecalis (GC 4554)): 64 µg/mL (≈ 80.9 µM) | MIC Enterococcus faecalis (GC 6189) ([2]; Enterococcus faecalis (GC 6189)): 64 µg/mL (≈ 80.9 µM) | MIC Enterococcus faecium (GC 2243) ([2]; Enterococcus faecium (GC 2243)): 32 µg/mL (≈ 40.5 µM) | MIC Enterococcus faecium (GC 4556) ([2]; Enterococcus faecium (GC 4556)): 64 µg/mL (≈ 80.9 µM) | MIC Enterococcus faecium (GC 4557) ([2]; Enterococcus faecium (GC 4557)): 8 µg/mL (≈ 10.1 µM) | MIC ([2]; read-out: MIC Enterococcus avium (GC 4558)): 32 µg/mL (≈ 40.5 µM) | MIC ([2]; read-out: MIC Enterococcus faecalis (ATCC 29212)): 64 µg/mL (≈ 80.9 µM) | MIC ([2]; read-out: MIC Enterococcus faecalis (GC 2242)): 64 µg/mL (≈ 80.9 µM) | MIC ([2]; read-out: MIC Enterococcus faecalis (GC 2691)): 64 µg/mL (≈ 80.9 µM) | MIC ([2]; read-out: MIC Enterococcus faecalis (GC 3059)): 64 µg/mL (≈ 80.9 µM) | MIC ([2]; read-out: MIC Enterococcus faecalis (GC 4552)): 64 µg/mL (≈ 80.9 µM) | MIC ([2]; read-out: MIC Enterococcus faecalis (GC 4553)): 32 µg/mL (≈ 40.5 µM) | MIC ([2]; read-out: MIC Enterococcus faecalis (GC 4554)): 64 µg/mL (≈ 80.9 µM) | MIC ([2]; read-out: MIC Enterococcus faecalis (GC 6189)): 64 µg/mL (≈ 80.9 µM) | MIC ([2]; read-out: MIC Enterococcus faecium (GC 2243)): 32 µg/mL (≈ 40.5 µM) | MIC ([2]; read-out: MIC Enterococcus faecium (GC 4556)): 64 µg/mL (≈ 80.9 µM) | MIC ([2]; read-out: MIC Enterococcus faecium (GC 4557)): 8 µg/mL (≈ 10.1 µM) | MIC Enterococcus faecalis (GC 2242) ([2]; strain GC 2242): 64 µg/mL (≈ 80.9 µM) | MIC Enterococcus faecalis (GC 2691) ([2]; strain GC 2691): 64 µg/mL (≈ 80.9 µM) | MIC Enterococcus faecalis (GC 3059) ([2]; strain GC 3059): 64 µg/mL (≈ 80.9 µM) | MIC ([3]; read-out: MIC Streptococcus agalactiae (GC 4564)): 16 µg/mL (≈ 20.2 µM) | MIC ([3]; read-out: MIC Streptococcus pneumoniae (ATCC 6301)): 8 µg/mL (≈ 10.1 µM) | MIC ([3]; read-out: MIC Streptococcus pneumoniae (GC 1894)): 8 µg/mL (≈ 10.1 µM) | MIC ([3]; read-out: MIC Streptococcus pneumoniae (GC 4565)): 16 µg/mL (≈ 20.2 µM) | MIC ([3]; read-out: MIC Streptococcus pyogenes (GC 4563)): 8 µg/mL (≈ 10.1 µM) | MIC Streptococcus pneumoniae (ATCC 6301) ([3]; strain ATCC 6301): 8 µg/mL (≈ 10.1 µM) | MIC Streptococcus pneumoniae (GC 1894) ([3]; strain GC 1894): 8 µg/mL (≈ 10.1 µM) | MIC Streptococcus pyogenes (GC 4563) ([3]; strain GC 4563): 8 µg/mL (≈ 10.1 µM) | MIC Streptococcus agalactiae (GC 4564) ([3]; strain GC 4564): 16 µg/mL (≈ 20.2 µM) | MIC Streptococcus pneumoniae (GC 4565) ([3]; strain GC 4565): 16 µg/mL (≈ 20.2 µM) | MIC ([4]; Escherichia coli (ATCC 25922), read-out: MIC Escherichia coli (ATCC 25922)): 16 µg/mL (≈ 20.2 µM) | MIC ([4]; Escherichia coli, read-out: MIC Escherichia coli (GC 4559)): 8 µg/mL (≈ 10.1 µM) | MIC ([4]; Escherichia coli, read-out: MIC Escherichia coli (GC 4560)): 16 µg/mL (≈ 20.2 µM)
SMILES: N=C1NCC(C(O)[C@@H]2NC(=O)[C@@H](CC3CCCCC3)NC(=O)[C@H](CC3CCCCC3)NC(=O)CNC(=O)[C@H](CO)NC(=O)[C@@H](C(O)C3CNC(=N)N3)NC2=O)N1 (stereo partly drawn) [Example 58, Cyclo[3-cyclohexylalanyl-3-cyclohexylalanyl-3-(2-iminoimidazolidin-4-yl)seryl-3-(2-iminoimidazolidin-4-yl)-serylserylglycyl]] (cyclo([Cha][dCha][X4][X5]SG))
MIC ([1]; strain GC 4546, read-out: MIC Staphylococcus haemolyticus (GC 4546)): 4 µg/mL (≈ 5.06 µM)
